Our source for the IC50 and GI50 values is patent US20140051679A1, “KINASE INHIBITORS AND METHOD OF TREATING CANCER WITH SAME” (UNIVERISTY HEALTH NETWORKS, priority 2011, published 2014).

Assay [1] concerns the target T1, Aurora B (Homo sapiens, UniProt Q96GD4).
T1 construct: purchased Invitrogen PV3970
Kind of assay: Aurora B inhibition assay (Z-Lyte). The assay is classed as biochemical. To be noted: 28 nM Aurora B, 128 μM ATP; read-out: IC50 Ranges Aurora B. As to the method:
Aurora B inhibition was determined using the Z-Lyte assay kit from Invitrogen. The assay was performed using the recommended manufacturer's instructions with 128 μM ATP and 28 nM Aurora B (Invitrogen cat #PV3970). The % inhibition values were determined according to the manufacturer's directions and IC50 values were obtained using a non-linear 4 point logistic curve fit (XLfit4, IDBS)

In assay [2] the test system is MDA-MB-231 breast cancer cells. Briefly: Cell growth inhibition, Sulforhodamine B assay, MDA-MB-231. It counts as cell-based. To be noted: Homo sapiens, 120 h, 5 days culture, SRB assay, read-out: Cell Line GI50 Range MDA-MB-231. Background: Sulforhodamine B stains cellular protein and so reports cell mass.
Assay [3] deals with T2, human PLK4 (Homo sapiens, UniProt O00444).
T2 construct: amino terminal GST fusion of residues 1-391 of human PLK4; made in house; host or cells: E. coli
T2 sequence (O00444 1-391): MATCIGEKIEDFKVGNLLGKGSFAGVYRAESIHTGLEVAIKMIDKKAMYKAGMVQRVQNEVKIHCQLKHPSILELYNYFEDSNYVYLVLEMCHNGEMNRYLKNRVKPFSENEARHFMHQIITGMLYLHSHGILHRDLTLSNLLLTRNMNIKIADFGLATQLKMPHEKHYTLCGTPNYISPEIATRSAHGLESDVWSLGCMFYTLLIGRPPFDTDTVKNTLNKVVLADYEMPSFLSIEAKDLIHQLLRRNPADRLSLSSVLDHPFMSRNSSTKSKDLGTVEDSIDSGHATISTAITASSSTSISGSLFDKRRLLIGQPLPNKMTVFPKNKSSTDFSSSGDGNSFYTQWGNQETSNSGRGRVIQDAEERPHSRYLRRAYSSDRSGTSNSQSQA
Briefly: PLK4 inhibition assay (indirect ELISA). It counts as biochemical. To be noted: GST-PLK4 4 nM, 15 μM ATP; read-out: IC50 Ranges PLK4. As to the method: Active PLK4 was purified from an E. coli expression system as an amino terminal GST fusion of residues 1-391 of human PLK4. The protein was purified from clarified cell extracts after induction at 15° C. overnight using glutathione sepharose, gel permeation chromatography, and ion exchange (Resource Q). The resulting protein was dephosphorylated with lambda phosphatase (NEB cat#P0753), and resolved from the phosphatase using gluthione sepharose. The dephosphorylated GST-PLK4 was stored in aliquots at −80° C. until use.
PLK4 activity was measured using an indirect ELISA detection system. GST-PLK4 (4 nM) was incubated in the presence of 15 μM ATP (Sigma cat#A7699), 50 mM HEPES-Na^2+ pH 7.5, 10 mM MgCl2, 0.01% Brij 35 (Sigma cat#03-3170), in a 96 well microtitre plate pre-coated with MBP (Millipore cat#30-011). The reaction was allowed to proceed for 30 minutes, followed by 5 washes of the plate with Wash Buffer (phosphate buffered saline supplemented with 0.2% Tween 20), and incubation for 30 minutes with a 1:3000 dilution of primary antibody (Cell Signaling cat#9381). The plate was washed 5 times with Wash Buffer, incubated for 30 minutes in the presence of secondary antibody coupled to horse radish peroxidase (BioRad cat#1721019, 1:3000 concentration), washed an additional 5 times with Wash Buffer, and incubated in the presence of TMB substrate (Sigma cat#T0440). The colourimetric reaction was allowed to continue for 5 minutes, followed by addition of stop solution (0.5 N sulphuric acid), and quantified by detection at 450 nm with either a monochromatic or filter based plate reader (Molecular Devices M5 or Beckman DTX880, respectively).
Compound inhibition was determined at either a fixed concentration (10 μM) or at a variable inhibitor concentration (typically 0.5 μM to 0.001 μM in a 10 point dose response titration). Compounds were pre-incubated in the presence of enzyme for 15 minutes prior to addition of ATP and the activity remaining quantified using the above described activity assay. The % Inhibition of a compound was determined using the following formula; % Inhibition=100×(1-(experimental value−background value)/(high activity control−background value)). The IC50 value was determined using a non-linear 4 point logistic curve fit (XLfit4, IDBS) with the formula; (A+(B/(1+((x/C)̂D)))), where A=background value, B=range, C=inflection point, D=curve fit parameter.
In general terms: In an ELISA, binding on a coated surface is turned into a signal by an enzyme label.

Assay [4] has as its system HCT116 colon cancer cells. Kind of assay: Cell growth inhibition, Sulforhodamine B assay, HCT116. To be noted: Homo sapiens, HCT-116, 120 h, 5 days culture, SRB assay, read-out: Cell Line GI50 Range HCT116. It counts as cell-based.
Assay [5] deals with MDA-MB-468 breast cancer cells. Kind of assay: Cell growth inhibition, Sulforhodamine B assay, MDA-MB-468. It counts as cell-based. As to conditions: Homo sapiens, 120 h, 5 days culture, SRB assay, read-out: Cell Line GI50 Range MDA-MB-468.
Description: Breast cancer cells (MDA-MB-231, MDA-MB-468), colon cancer cells (HCT116, HT29) and ovarian cancer cells (PA-1, OVCAR-3) were seeded (1000 to 4000 in 80 μl per well depending on the cell growth rate) into 96 well plates 24 hours before compound overlay. Compounds were prepared as 10 mM stock solutions in 100% DMSO which were diluted with DMEM (Dulbecco's Modified Eagle's Medium) cell growth Medium (Invitrogen, Burlington, ON, Canada) containing 10% FBS (Fetal Bovine Serum) to concentrations ranging from 50 nM to 250 μM. Aliquots (20 μl) from each concentration were overlaid to 80 μl of the pre-seeded cells in the 96 well plates to make final concentrations of 10 nM to 50 μM. The cells were cultured for 5 days before the Sulforhodamine B assay (SRB) was performed to determine the compound's cell growth inhibition activity.
Sulforhodamine B (purchased from Sigma, Oakville, ON, Canada) is a water-soluble dye that binds to the basic amino acids of the cellular proteins. Thus, colorimetric measurement of the bound dye provides an estimate of the total protein mass that is related to the cell number. the cells are fixed in situ by gently aspirating off the culture media and adding 50 μl ice cold 10% Trichloroacetic Acid (TCA) per well and incubate at 4° C. for 30-60 min, The plates are washed with water five times and allowed to air dry for 5 min. Addition of 50 μl 0.4% (w/v) SRB solution in 1% (v/v) acetic acid to each well and incubatation for 30 min at RT completes the staining reaction. Following staining, plates are washed four times with 1% acetic acid to remove unbound dye and then allowed to air dry for 5 min. The stain is solubilized with 100 μl of 10 mM Tris pH 10.5 per well. Absorbance is read at 570 nm.
The percentage (%) of relative growth inhibition was calculated by comparing to DMSO treated only cells (100%). […] The GI50 was calculated using GraphPad PRISM software (GraphPad Software, Inc., San Diego, Calif., USA).
In assay [6] the target is T3, human TTK (Homo sapiens, UniProt P33981).
T3 construct: amino terminal GST fusion of full length human TTK; purchased Invitrogen
T3 sequence (P33981 1-857): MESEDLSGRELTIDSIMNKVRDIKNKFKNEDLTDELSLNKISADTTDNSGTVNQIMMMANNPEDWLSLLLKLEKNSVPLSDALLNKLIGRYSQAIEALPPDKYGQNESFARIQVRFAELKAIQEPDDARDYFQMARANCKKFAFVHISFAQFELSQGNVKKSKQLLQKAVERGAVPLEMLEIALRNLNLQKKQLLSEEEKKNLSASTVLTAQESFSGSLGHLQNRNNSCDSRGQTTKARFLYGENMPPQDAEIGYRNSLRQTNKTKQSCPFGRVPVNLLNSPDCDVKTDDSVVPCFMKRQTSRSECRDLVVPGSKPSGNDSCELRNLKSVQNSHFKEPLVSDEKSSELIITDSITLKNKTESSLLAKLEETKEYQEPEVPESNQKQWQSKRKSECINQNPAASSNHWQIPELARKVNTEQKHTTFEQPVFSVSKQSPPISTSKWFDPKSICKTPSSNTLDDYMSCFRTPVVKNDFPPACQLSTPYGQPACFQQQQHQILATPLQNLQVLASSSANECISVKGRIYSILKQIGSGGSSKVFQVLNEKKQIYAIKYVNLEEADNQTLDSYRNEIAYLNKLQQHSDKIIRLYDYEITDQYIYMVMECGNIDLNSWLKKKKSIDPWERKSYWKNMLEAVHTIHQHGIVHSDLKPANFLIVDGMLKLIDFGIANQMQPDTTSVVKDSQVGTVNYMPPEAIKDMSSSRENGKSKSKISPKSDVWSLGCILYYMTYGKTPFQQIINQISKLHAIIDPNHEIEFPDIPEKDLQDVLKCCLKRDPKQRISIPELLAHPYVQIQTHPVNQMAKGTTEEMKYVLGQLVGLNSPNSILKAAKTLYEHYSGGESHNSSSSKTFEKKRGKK
Kind of assay: TTK inhibition assay (indirect ELISA). The assay is classed as biochemical. As to conditions: GST-TTK 0.68 nM, 16 μM ATP; read-out: IC50 Ranges TTK.

In assay [7] the test system is HT29 colon cancer cells. Kind of assay: Cell growth inhibition, Sulforhodamine B assay, HT29. It counts as cell-based. To be noted: Homo sapiens, HT-29, 120 h, 5 days culture, SRB assay, read-out: Cell Line GI50 Range HT29.

T1 sequence (Q96GD4 whole entry): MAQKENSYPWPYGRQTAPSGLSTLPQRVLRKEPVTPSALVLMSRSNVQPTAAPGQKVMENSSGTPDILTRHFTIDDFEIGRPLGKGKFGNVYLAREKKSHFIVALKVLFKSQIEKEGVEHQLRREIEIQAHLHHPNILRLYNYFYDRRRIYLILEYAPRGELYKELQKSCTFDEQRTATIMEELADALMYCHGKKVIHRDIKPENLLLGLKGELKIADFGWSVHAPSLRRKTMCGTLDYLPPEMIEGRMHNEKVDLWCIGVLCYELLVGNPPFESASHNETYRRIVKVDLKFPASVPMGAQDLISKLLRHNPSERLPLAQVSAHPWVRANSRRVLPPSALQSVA

With `COc1cc(-c2n[nH]c3ccc(C(=O)NC(c4ccccc4)C4CC4)cc23)ccc1OC1CCNCC1` (stereo not drawn) [Example A13, N-(cyclopropyl(phenyl)methyl)-3-(3-methoxy-4-(piperidin-4-yloxy)phenyl)-1H-indazole-5-carboxamide], the 50% inhibitory concentration (IC50) in assay [1], in assay [3] and in assay [6] was at most 5 µM in each case. Also, the GI50 in assay [2], in assay [4] and in assay [5] was at most 5 µM throughout.

For the molecule `COc1cc(-c2n[nH]c3ccc(C(=O)NC(c4ccccc4)C4CC4)cc23)ccc1OC1CCN(C)CC1` (stereo not drawn) [Example A19, N-(cyclopropyl(phenyl)methyl)-3-(3-methoxy-4-((1-methylpiperidin-4-yl)oxy)phenyl)-1H-indazole-5-carboxamide], the IC50 in assay [1], in assay [3] and in assay [6] was at most 5 µM in each case. In addition, the GI50 in assay [2], in assay [4] and in assay [5] was at most 5 µM each time.

`O=C(Nc1ccc2[nH]nc(-c3ccc(CN4CCOCC4)cc3)c2c1)C(c1ccsc1)N1CCCC1` (stereo not drawn) [Example A3, N-(3-(4-(morpholinomethyl)phenyl)-1H-indazol-5-yl)-2-(pyrrolidin-1-yl)-2-(thiophen-3-yl)acetamide]: the IC50 in assay [1], in assay [3] and in assay [6] was at most 5 µM in each case. Moreover, the GI50 in assay [2], in assay [4] and in assay [5] was at most 5 µM in each case.

Consider `O=C(Nc1ccc2[nH]nc(-c3ccc(CCN4CCOCC4)cc3)c2c1)C(c1ccsc1)N1CCCC1` (stereo not drawn) [Example A6, N-(3-(4-(2-morpholinoethyl)phenyl)-1H-indazol-5-yl)-2-(pyrrolidin-1-yl)-2-(thiophen-3-yl)acetamide], for which the IC50 in assay [1], in assay [3] and in assay [6] was at most 5 µM throughout. The GI50 in assay [2], in assay [4] and in assay [5] was at most 5 µM throughout.

As for `O=C(Nc1ccc2[nH]nc(-c3ccc4c(c3)OCCO4)c2c1)C(c1ccsc1)N1CCCC1` (stereo not drawn) [Example A15, N-(3-(2,3-dihydrobenzo[b][1,4]dioxin-6-yl)-1H-indazol-5-yl)-2-(pyrrolidin-1-yl)-2-(thiophen-3-yl)acetamide], the GI50 in assay [2], in assay [4] and in assay [5] was at most 5 µM each time. Also, the IC50 in assay [3] and in assay [6] was at most 5 µM each time.

`COc1cc(-c2n[nH]c3ccc(NC(=O)C(c4ccsc4)N4CCCC4)cc23)ccc1OC1CCN(C)CC1` (stereo not drawn) [Example A21, N-(3-(3-methoxy-4-((1-methylpiperidin-4-yl)oxy)phenyl)-1H-indazol-5-yl)-2-(pyrrolidin-1-yl)-2-(thiophen-3-yl)acetamide]: the 50% inhibitory concentration (IC50) in assay [1], in assay [3] and in assay [6] was at most 5 µM each time. In addition, the concentration for 50% growth inhibition (GI50) in assay [2], in assay [4] and in assay [5] was at most 5 µM in each case.

Regarding `O=C(Nc1ccc2[nH]nc(-c3ccc(CN4CCOCC4)cc3)c2c1)C1CCCc2ccccc21` (stereo not drawn) [Example A23, N-(3-(4-(morpholinomethyl)phenyl)-1H-indazol-5-yl)-1,2,3,4-tetrahydronaphthalene-1-carboxamide], the results for the concentration for 50% growth inhibition (GI50) in assay [2], in assay [4] and in assay [5] were 5 to 20 µM, at most 5 µM and at most 5 µM, respectively. The IC50 in assay [3] and in assay [6] was at most 5 µM in each case.

As to `COC(C(=O)Nc1ccc2[nH]nc(-c3ccc(OC4CCN(C)CC4)cc3)c2c1)c1ccsc1` (stereo not drawn) [Example A37, 2-methoxy-N-(3-(4-((1-methylpiperidin-4-yl)oxy)phenyl)-1H-indazol-5-yl)-2-(thiophen-3-yl)acetamide], the IC50 in assay [1], in assay [3] and in assay [6] was at most 5 µM in each case. Moreover, the GI50 in assay [7], in assay [4] and in assay [5] was at most 5 µM throughout.

`O=C(N[C@@H](c1ccccc1)C1CC1)c1ccc2[nH]nc(-c3ccc(N4CCOCC4)cc3)c2c1` [Example A51, (R)—N-(cyclopropyl(phenyl)methyl)-3-(4-morpholinophenyl)-1H-indazole-5-carboxamide]: the IC50 in assay [1], in assay [3] and in assay [6] was at most 5 µM each time. Further, the GI50 in assay [7], in assay [4] and in assay [5] was at most 5 µM in each case.

`O=C(N[C@H](c1ccccc1)C1CC1)c1ccc2[nH]nc(-c3ccc(N4CCOCC4)cc3)c2c1` [Example A49, (S)—N-(cyclopropyl(phenyl)methyl)-3-(4-morpholinophenyl)-1H-indazole-5-carboxamide]: the IC50 in assay [1], in assay [3] and in assay [6] was at most 5 µM throughout. Besides, the GI50 in assay [7], in assay [4] and in assay [5] was at most 5 µM each time.

As to `O=C(Nc1ccc2[nH]nc(-c3ccc4c(c3)OCO4)c2c1)C(c1ccsc1)N1CCCC1` (stereo not drawn) [Example A14, N-(3-(benzo[d][1,3]dioxol-5-yl)-1H-indazol-5-yl)-2-(pyrrolidin-1-yl)-2-(thiophen-3-yl)acetamide], the GI50 in assay [2], in assay [4] and in assay [5] was at most 5 µM throughout. Besides, the IC50 in assay [3] and in assay [6] was at most 5 µM each time.

The term IC50 denotes the midpoint of a concentration-inhibition curve. For orientation: GI50 means the concentration giving 50% growth inhibition.
